The values that follow come from patent US8541461B2 (Astex Therapeutics Limited, priority 2005, dated 2013).

The structures appear in SMILES notation. Some results are limits rather than exact numbers.

The target of the assay is T1, PKB-PIF fusion protein (protein kinase B) (Homo sapiens, UniProt P31751).
T1 construct: PIF (fusion partner); made in house
T1 sequence (P31751 with tags, fused parts or gaps limits assumed): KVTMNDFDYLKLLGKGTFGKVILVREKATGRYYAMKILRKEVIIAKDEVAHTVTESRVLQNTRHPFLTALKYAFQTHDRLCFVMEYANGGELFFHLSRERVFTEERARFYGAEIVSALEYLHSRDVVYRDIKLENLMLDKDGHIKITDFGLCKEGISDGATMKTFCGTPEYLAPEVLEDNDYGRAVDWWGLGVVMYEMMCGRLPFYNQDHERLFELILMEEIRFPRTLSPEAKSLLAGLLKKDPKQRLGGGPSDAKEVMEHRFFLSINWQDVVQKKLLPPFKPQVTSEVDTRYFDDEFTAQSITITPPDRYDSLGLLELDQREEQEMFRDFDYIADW
In words: Measurement of PKB kinase inhibitory activity (IC50). It counts as biochemical. The settings on record: 0.6 nM enzyme, 30 μM ATP/γ33P-ATP, 25 μM AKTide-2T substrate; read-out: PKB IC50. The method, then:
The reaction is allowed to proceed for 20 minutes before addition of excess orthophosphoric acid to quench activity. The reaction mixture is transferred to a phosphocellulose filter plate where the peptide binds and the unused ATP is washed away. After washing, scintillant is added and the incorporated activity measured by scintillation counting.
A word on the IC50: it is the concentration that inhibits the measured activity by half. As for `CNCCC(c1ccc(-c2cn[nH]c2)cc1)c1ccc(N(C)C)cc1` (stereo not drawn) [Example 53, Dimethyl-(4-{3-methylamino-1-[4-(1H-pyrazol-4-yl)-phenyl]-propyl}-phenyl)-amine], the IC50 is < 5000 nM. With `c1ccc(OC(CCn2ccnc2)c2ccc(-c3cn[nH]c3)cc2)cc1` (stereo not drawn) [Example 62, 4-[4-(3-Imidazol-1-yl-1-phenoxy-propyl)-phenyl]-1H-pyrazole], the IC50 was < 50000 nM. Regarding `NC(=O)CC(c1ccc(-c2cn[nH]c2)cc1)c1ccc(Cl)c(Cl)c1` (stereo not drawn) [Example 69, 3-(3,4-Dichloro-phenyl)-3-[4-(1H-pyrazol-4-yl)-phenyl]-propionamide], the IC50 was < 1000 nM.

In the case of `N#Cc1n[nH]cc1-c1ccc(C2(c3ccc(Cl)cc3)CCNCC2)cc1` [Example 55, 4-{4-[4-(4-Chloro-phenyl)-piperidin-4-yl]-phenyl}-1H-pyrazole-3-carbonitrile], the concentration for half-maximal inhibition (IC50) was < 5000 nM.

With `Clc1ccc(C(CN2CCNCC2)c2ccc(-c3cn[nH]c3)cc2)cc1` (stereo not drawn) [Example 33, 1-{2-(4-Chloro-phenyl)-2-[4-(1H-pyrazol-4-yl)-phenyl]-ethyl}-piperazine], the IC50 is < 1000 nM. To `c1cc(C2(c3ccc(-c4cn[nH]c4)cc3)CCNCC2)ccn1` [Example 89, 4-[4-(1H-Pyrazol-4-yl)-phenyl]-1,2,3,4,5,6-hexahydro-[4,4′]bipyridinyl] belongs < 5000 nM. To `CNCCC(c1ccc(O)cc1)c1ccc(-c2cn[nH]c2)cc1` (stereo not drawn) [Example 76, 4-{3-Methylamino-1-[4-(1H-pyrazol-4-yl)-phenyl]-propyl}-phenol] belongs < 1000 nM.

Take `OCCCNCC(c1ccc(Cl)cc1)c1ccc(-c2cn[nH]c2)cc1` (stereo not drawn) [Example 72]: the half-maximal inhibitory concentration (IC50) is < 1000 nM.

Consider `NCC(Cc1ccccc1)c1cccc(-c2cn[nH]c2)c1` (stereo not drawn) [Example 6, 3-Phenyl-2-[3-(1H-pyrazol-4-yl)-phenyl]-propylamine], for which the IC50 was < 5000 nM. To `CN1CCCN(C(c2ccccc2)c2ccc(-c3cn[nH]c3)cc2)CC1` (stereo not drawn) [Example 58, 1-Methyl-4-{phenyl-[4-(1H-pyrazol-4-yl)-phenyl]-methyl}-[1,4]diazepane] belongs < 5000 nM. For `CNCCC(c1ccc(-c2cn[nH]c2)cc1)c1cccc(Cl)c1` (stereo not drawn) [Example 10, {3-(3-Chloro-phenyl)-3-[4-(1H-pyrazol-4-yl)-phenyl]-propyl}-methyl-amine] the value was < 1000 nM.

Turning to `CNCC(c1ccc(-c2cn[nH]c2)cc1)c1ccc(-c2cn[nH]c2)cc1` [Example 29, {2,2-Bis-[4-(1H-pyrazol-4-yl)-phenyl]-ethyl}-methyl-amine], the IC50 was < 1000 nM. Turning to `Clc1ccc(C(c2ccc(-c3cn[nH]c3)cc2)N2CCNCC2)cc1` (stereo not drawn) [Example 57, 1-{(4-Chloro-phenyl)-[4-(1H-pyrazol-4-yl)-phenyl]-methyl}-piperazine], the 50% inhibitory concentration (IC50) was < 1000 nM.

Regarding `CNC(=O)C(c1ccc(-c2cn[nH]c2)cc1)c1ccc(-c2cn[nH]c2)cc1` [Example 41, N-Methyl-2,2-bis-[4-(1H-pyrazol-4-yl)-phenyl]-acetamide], the half-inhibitory concentration (IC50) was < 50000 nM. To `CN(C)CC(c1ccc(-c2cn[nH]c2)cc1)c1ccc(-c2cn[nH]c2)cc1` [Example 28, {2,2-Bis-[4-(1H-pyrazol-4-yl)-phenyl]-ethyl}-dimethyl-amine] belongs < 1000 nM; to `CNCCC(c1ccc(-c2cn[nH]c2)cc1)c1ccc(F)c(F)c1` (stereo not drawn) [Example 9, {3-(3,4-Difluoro-phenyl)-3-[4-(1H-pyrazol-4-yl)-phenyl]-propyl}-methyl-amine], < 1000 nM. Turning to `c1ccc(C2(c3ccc(-c4cn[nH]c4)cc3)CCNCC2)cc1` [Example 17, 4-Phenyl-4-[4-(1H-pyrazol-4-yl)-phenyl]-piperidine], the IC50 is < 1000 nM. As to `COCCCOc1ccc(C2(c3ccc(-c4cn[nH]c4)cc3)CCNCC2)cc1` [Example 68, 4-[4-(3-Methoxy-propoxy)-phenyl]-4-[4-(1H-pyrazol-4-yl)-phenyl]-piperidine], the concentration for half-maximal inhibition (IC50) is < 5000 nM. For `Clc1ccc(C(CCN2CCC2)c2ccc(-c3cn[nH]c3)cc2)cc1` (stereo not drawn) [Example 51, 4-{4-[3-Azetidin-1-yl-1-(4-chloro-phenyl)-propyl]-phenyl}-1H-pyrazole] the value was < 1000 nM; for `CC(C)NCC(c1ccc(Cl)cc1)c1ccc(-c2cn[nH]c2)cc1` (stereo not drawn) [Example 26, {2-(4-Chloro-phenyl)-2-[4-(1H-pyrazol-4-yl)-phenyl]-ethyl}-isopropyl-amine], < 1000 nM; for `CNCC(c1ccc(Cl)cc1)c1ccc(-c2cn[nH]c2)cc1` (stereo not drawn) [Example 21, {2-(4-Chloro-phenyl)-2-[4-(1H-pyrazol-4-yl)-phenyl]-ethyl}-methyl-amine], < 1000 nM. For `CN(C)CCC(c1ccc(-c2cn[nH]c2)cc1)c1ccccn1` (stereo not drawn) [Example 19, Dimethyl-{3-[4-(1H-pyrazol-4-yl)-phenyl]-3-pyridin-2-yl-propyl}-amine] the value was < 5000 nM.

With `Clc1ccc(C(CN2CCCC2)c2ccc(-c3cn[nH]c3)cc2)cc1` (stereo not drawn) [Example 25, 4-{4-[1-(4-Chloro-phenyl)-2-pyrrolidin-1-yl-ethyl]-phenyl}-1H-pyrazole], the IC50 is < 1000 nM.

Turning to `NCCC(c1ccc(-c2cn[nH]c2)cc1)c1ccc(Cl)c(Cl)c1` (stereo not drawn) [Example 13, 3-(3,4-Dichloro-phenyl)-3-[4-(1H-pyrazol-4-yl)-phenyl]-propylamine], the IC50 was < 1000 nM. To `COc1ccc(C(CCN)c2ccc(-c3cn[nH]c3)cc2)cc1` (stereo not drawn) [Example 77, 3-(4-Methoxy-phenyl)-3-[4-(1H-pyrazol-4-yl)-phenyl]-propylamine] belongs < 1000 nM; to `NC(=O)C(c1ccc(Cl)cc1)c1ccc(-c2cn[nH]c2)cc1` (stereo not drawn) [Example 32, 2-(4-Chloro-phenyl)-2-[4-(1H-pyrazol-4-yl)-phenyl]-acetamide], < 5000 nM.

As to `Clc1ccc(C(CCn2ccnc2)c2ccc(-c3cn[nH]c3)cc2)cc1` (stereo not drawn) [Example 61, 4-{4-[1-(4-Chloro-phenyl)-3-imidazol-1-yl-propyl]-phenyl}-1H-pyrazole], the IC50 is < 1000 nM. Take `COc1ccc(C2(c3ccc(-c4cn[nH]c4)cc3)CCNCC2)cc1` [Example 15, 4-(4-Methoxy-phenyl)-4-[4-(1H-pyrazol-4-yl)-phenyl]-piperidine]: the IC50 is < 1000 nM. For `Clc1ccc(C(CN2CCC2)c2ccc(-c3cn[nH]c3)cc2)cc1` (stereo not drawn) [Example 35, 4-{4-[2-Azetidin-1-yl-1-(4-chloro-phenyl)-ethyl]-phenyl}-1H-pyrazole] the value was < 1000 nM. To `NCCC(c1ccc(Oc2ccccc2)cc1)c1ccc(-c2cn[nH]c2)cc1` (stereo not drawn) [Example 56, 3-(4-Phenoxy-phenyl)-3-[4-(1H-pyrazol-4-yl)-phenyl]-propylamine] belongs < 1000 nM; to `CNCCC(c1ccc(Cl)cc1)c1ccc(-c2cn[nH]c2)cc1` (stereo not drawn) [Example 8, {3-(4-Chloro-phenyl)-3-[4-(1H-pyrazol-4-yl)-phenyl]-propyl}-methyl-amine], < 1000 nM; to `Clc1ccc(C2(c3ccc(-c4cn[nH]c4)cc3)CCNCC2)cc1` [Example 14, 4-(4-Chloro-phenyl)-4-[4-(1H-pyrazol-4-yl)-phenyl]-piperidine], < 1000 nM. For `CNCC(c1ccc(Cl)cc1)c1ccc(-c2cn[nH]c2)cc1` (stereo in doubt) [Example 22, {2-(4-Chloro-phenyl)-2-[4-(1H-pyrazol-4-yl)-phenyl]-ethyl}-methyl-amine (R)] the value was < 1000 nM; for `CNCC(c1ccc(F)cc1)c1ccc(-c2cn[nH]c2)cc1` (stereo not drawn) [Example 65, {2-(4-Fluoro-phenyl)-2-[4-(1H-pyrazol-4-yl)-phenyl]-ethyl}-methyl-amine], < 1000 nM; for `CNCC(c1ccc(-c2cccnc2)cc1)c1ccc(-c2cn[nH]c2)cc1` (stereo not drawn) [Example 75, Methyl-[2-[4-(1H-pyrazol-4-yl)-phenyl]-2-(4-pyridin-3-yl-phenyl)-ethyl]-amine], < 5000 nM. Take `CN1CCC(c2ccc(Cl)cc2)(c2ccc(-c3cn[nH]c3)cc2)CC1` [Example 16, 4-(4-Chloro-phenyl)-1-methyl-4-[4-(1H-pyrazol-4-yl)-phenyl]-piperidine]: the 50% inhibitory concentration (IC50) was < 1000 nM. To `N#CC(Cc1ccccc1)c1cccc(-c2cn[nH]c2)c1` (stereo not drawn) [Example 2, 3-Phenyl-2-[3-(1H-pyrazol-4-yl)-phenyl]-propionitrile] belongs < 5000 nM; to `NC(Cc1ccc(-c2cn[nH]c2)cc1)c1ccccc1` (stereo not drawn) [Example 36, 1-Phenyl-2-[4-(1H-pyrazol-4-yl)-phenyl]-ethylamine], < 5000 nM.

In the case of `Cc1n[nH]c(C)c1-c1ccc(C(CN)c2ccccc2)cc1` (stereo not drawn) [Example 3, 2-[4-(3,5-Dimethyl-1H-pyrazol-4-yl)-phenyl]-2-phenyl-ethylamine], the IC50 was < 5000 nM.

Take `CN(C)CC(c1ccc(Cl)cc1)c1ccc(-c2cn[nH]c2)cc1` (stereo not drawn) [Example 20, {2-(4-Chloro-phenyl)-2-[4-(1H-pyrazol-4-yl)-phenyl]-ethyl}-dimethyl-amine]: the IC50 was < 1000 nM. To `Clc1ccc(C(CN2CCCCC2)c2ccc(-c3cn[nH]c3)cc2)cc1` (stereo not drawn) [Example 34, 1-{2-(4-Chloro-phenyl)-2-[4-(1H-pyrazol-4-yl)-phenyl]-ethyl}-piperidine] belongs < 1000 nM. For `c1ccc(C(c2ccc(-c3cn[nH]c3)cc2)N2CCNCC2)cc1` (stereo not drawn) [Example 64] the value was < 5000 nM; for `NCCC(c1ccc(Cl)cc1)c1ccc(-c2cn[nH]c2)cc1` (stereo not drawn) [Example 12, 3-(4-Chloro-phenyl)-3-[4-(1H-pyrazol-4-yl)-phenyl]-propylamine], < 1000 nM; for `Fc1cc(C2(c3ccc(-c4cn[nH]c4)cc3)CCNCC2)ccc1Cl` [Example 87, 4-(4-Chloro-3-fluoro-phenyl)-4-[4-(1H-pyrazol-4-yl)-phenyl]-piperidine], < 1000 nM. In the case of `Clc1ccc(C(CCN2CCCC2)c2ccc(-c3cn[nH]c3)cc2)cc1` (stereo not drawn) [Example 50, 4-{4-[1-(4-Chloro-phenyl)-3-pyrrolidin-1-yl-propyl]-phenyl}-1H-pyrazole], the concentration for half-maximal inhibition (IC50) is < 1000 nM.
